Data published in patent US20240269094A1, “Treatment of canine dermatitis and skin irritation” (priority 2023, published 2024).
Entries after “also recorded” stand apart in the source; their conditions may differ. Where two headings read alike, the source gives them in different places.

Tests used:
[1] = molecular target: T1, TRPM8 (Homo sapiens, UniProt Q7Z2W7); assay: Bioassay of FEMA 4557 in TRPM8 (laboratory of Prof. Seok-Yong Lee, FIG. 4); format: cell-based
From the text: (§1) FIG. 4 Bioassay of FEMA 4557 (labeled as BUDA on the graph) in TRPM8 and TRPA1. Data from the laboratory of Prof. Seok-Yong Lee at Duke University.
(§2) FIG. 4 Bioassay of FEMA 4557 (labeled as BUDA) in TRPM8 and TRPA1. Data of Prof. Seok-Yong Lee at Duke University.

[2] = molecular target: T2, TRPA1 (Homo sapiens, UniProt O75762); assay: Bioassay in cells transfected with TRPA1 (FIG. 4); format: cell-based
T2 construct: expressed in transfected cells
T2 sequence (O75762 whole entry, species assumed): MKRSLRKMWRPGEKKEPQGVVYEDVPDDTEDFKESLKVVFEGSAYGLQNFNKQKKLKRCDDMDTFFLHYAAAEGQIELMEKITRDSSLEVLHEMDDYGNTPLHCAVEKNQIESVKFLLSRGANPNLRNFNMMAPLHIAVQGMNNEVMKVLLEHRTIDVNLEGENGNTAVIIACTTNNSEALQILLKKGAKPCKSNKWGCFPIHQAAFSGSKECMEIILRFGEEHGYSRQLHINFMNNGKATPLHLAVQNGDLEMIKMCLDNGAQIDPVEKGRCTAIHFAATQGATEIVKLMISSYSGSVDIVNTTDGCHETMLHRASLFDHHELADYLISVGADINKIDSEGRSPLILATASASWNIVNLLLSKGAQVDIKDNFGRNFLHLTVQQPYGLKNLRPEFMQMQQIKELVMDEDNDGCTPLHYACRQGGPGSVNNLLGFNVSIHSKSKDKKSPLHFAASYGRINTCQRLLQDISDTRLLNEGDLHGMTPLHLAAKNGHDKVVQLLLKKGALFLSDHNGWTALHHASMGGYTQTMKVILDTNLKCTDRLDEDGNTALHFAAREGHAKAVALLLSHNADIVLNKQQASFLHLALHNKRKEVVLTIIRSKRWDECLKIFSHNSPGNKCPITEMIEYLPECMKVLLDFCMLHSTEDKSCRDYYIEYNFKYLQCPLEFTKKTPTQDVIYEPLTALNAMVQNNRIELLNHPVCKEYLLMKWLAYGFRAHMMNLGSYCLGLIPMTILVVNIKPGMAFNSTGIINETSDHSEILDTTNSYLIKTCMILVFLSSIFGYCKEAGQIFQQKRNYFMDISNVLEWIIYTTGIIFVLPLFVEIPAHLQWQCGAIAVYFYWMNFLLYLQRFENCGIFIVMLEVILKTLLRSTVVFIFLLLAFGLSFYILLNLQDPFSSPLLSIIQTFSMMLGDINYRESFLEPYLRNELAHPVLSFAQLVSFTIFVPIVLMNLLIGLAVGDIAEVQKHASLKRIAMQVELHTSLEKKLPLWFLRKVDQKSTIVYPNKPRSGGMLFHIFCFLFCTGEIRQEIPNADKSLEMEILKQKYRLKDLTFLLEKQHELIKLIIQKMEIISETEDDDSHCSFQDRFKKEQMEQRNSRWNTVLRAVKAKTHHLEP
From the text: as §1, §2

[3] = system: tongue; assay: Oral cavity screen: 15 mg of crystals on the dorsal surface of the tongue; format: in vivo, human
Protocol: In this discovery, sensory activity in the oral cavity was the first screen. The goal was to identify candidates producing unusual sensations. Test agents, prepared as 15 mg of white crystals, were placed on the dorsal surface of the tongue. The chemical structures and identifying characteristics are in Table 1. […] Related cooling agents were not freezing cold, except for WS-23.

[4] = system: philtrum skin; assay: Philtrum (skin) bioassay of cooling; format: in vivo, human
Protocol: FIG. 5. The philtrum bioassay. Cooling agents, prepared as a or in solution are applied to the philtrum skin. Cooling intensity is rated on a scale of 0 to 3, with 0=no changes in sensation, 1=a slight feeling of coolness, cold or tingling, 2=a clearcut feeling of coolness of cold, and 3=a robust feeling of coolness of cold. The duration of cooling was recorded until two zeroes were measured 10 min apart.
TRPM8 EC50 Receptor Assay. […] A receptor assay is a standard tool and can be done quickly. For example, in a 384-plate assay, you can easily test 10 compounds and get dose-response data. For a chemical agonist, an in vitro TRPM8 assay generates an EC50 (median effective concentration). But the quantitative correlation between the EC50 on TRPM8 and cooling sensation was vague. That is, the science was “roughly” predictive, but there was considerable uncertainty for each agonist. […] Philtrum (Skin) Assay. For cooling sensations on the skin, it is necessary to test the substance on the skin. Wei proposed the use of the skin on the philtrum as a test site for cooling activity of chemicals (FIG. 5). The test substance is dissolved in a carrier, such as solvent, gel, or ointment and applied to the philtrum, a surface area of […]. The subject records sensations on the philtrum and environs as:
The subject is given a form to record observations and instructions to mark sensations on the philtrum and environs as: 0=no changes in sensation, 1=a slight feeling of coolness, cold, or tingling, 2=a clearcut feeling of coolness or cold, and 3=a robust feeling of coolness and cold.
The intervals for measurements are usually at 5, to 15 min after application, until two successive zeros are obtained. The philtrum application site is the midline groove above the upper lip border and vermilion. The gel is placed on the philtrum with a cotton-tipped applicator up to the nasolabial folds and sometimes, but not deliberately, on the lower nostrils (subnasale). Cold receptors densely innervate the philtrum skin (FIG. 5), second only to the surfaces of the eyeball and anogenitalia. The lips also have a high density of “cold spots.” Hensel et al. mapped the cold spots on the human face (cited in Dhaka et al., 2008). In animals such as the rat the mystacial pad (nose pad with vibrissae) is abundantly labeled with TRPM8-fibers. “Cold Points” linked to single-unit neuronal discharges can be measured in experimental animals. Wei has direct experience in such experiments (Poree et al., 1989).
Dip a cotton-tipped applicator (Puritan Cotton-tipped applicators, or Q-Tips) into a reservoir bottle containing the liquid or semi-liquid (gel) test substance. The composition adhering to the cotton (about 0.1 mL) is put on the skin. The philtrum site is shown in a cartoon. A subject can practice the method in front of a mirror with a high-intensity light source. Results for test on the philtrum are in Table 8 and FIG. 5. See data in FIG. 6. Cooling agents, prepared as an 8% wt./vol. gel, was tested topically on the philtrum skin assay. The duration of cooling was recorded (min on y-axis). The startling activity of FEMA 4557, cooling for ˜3 hr, was unexpected and surprising. FEMA 3784 is also known as Cool 10 or menthoxypropanediol. […]

[5] = system: canine dermatitis, scratching and licking; assay: Topical treatment of canine skin irritation (case studies); format: in vivo, dog
Protocol: The Applicant gave the dog's owner an airless pump dispenser containing 8% wt/vol of FEMA 4557 dispersed in 4 mg/ml of carbapol 980, formulated with 1% ethanol and 1% menthol, and instructed him to apply the gel to the skin of the dog's belly and groin.
A twelve-year-old West Highland Terrier had periodic episodes of seasonal skin allergy. […] The owner of the dog, who had access to a pharmacy, applied nystatin ointment and a potent skin steroid cream containing […].
Next, a 20% wt/vol FEMA 4557 solution, dissolved in propylene glycol, was applied to the interdigital folds of the paws with a cotton-tipped applicator (FIG. 9).

[6] = Comparison of classes of cooling agents for applications on the canine skin (grades); parameters: species or system dog; key: A = excellent; B = average; C = poor; F = does not work; settings: grade
From the text: Here are comments on grades assigned to specific classes of cooling agents (Table 3). […] The p-menthane carboxamides cover a wide range of compounds, but they are difficult for skin formulation to achieve a long duration of action. Menthol is short-acting and irritating, especially when it is near the ocular surface. The 1-dialkylphosphorylalkane known as DIPA1-7 (Cryosim-1, 1-dialkylphosphorylheptane) is an excellent skin agent, but costs are high for dermatological applications.

[7] = molecular target: T2, TRPA1; settings: Johnson et al. 2018; applicant could not repeat; cited from earlier work
[8] = system: oral cavity; settings: 100 ppm in 5% sucrose; scale of 0 to 9 units; Johnson, 2018; cited from earlier work
[9] = system: canine dermatitis, scratching and licking; assay: Topical treatment of canine skin irritation (case studies); format: in vivo, dog; settings: 32% wt/vol liquid in 1,2-propanediol, 4% ethanol, 4% l-menthol
[10] = molecular target: T1, TRPM8; parameters: EC50; other: Johnson, 2.2/2.2; settings: Ref. 5 (Johnson et al., 2018); cited from earlier work
[11] = molecular target: T3, TRPM8 (Mus musculus, UniProt Q8R4D5); assay: TRPM8 in vitro assay, EC50 of cooling agents (published data, Table 5 / FIG. 3); format: cell-based; settings: Behrendt et al., 4.1/44
T3 sequence (Q8R4D5 whole entry): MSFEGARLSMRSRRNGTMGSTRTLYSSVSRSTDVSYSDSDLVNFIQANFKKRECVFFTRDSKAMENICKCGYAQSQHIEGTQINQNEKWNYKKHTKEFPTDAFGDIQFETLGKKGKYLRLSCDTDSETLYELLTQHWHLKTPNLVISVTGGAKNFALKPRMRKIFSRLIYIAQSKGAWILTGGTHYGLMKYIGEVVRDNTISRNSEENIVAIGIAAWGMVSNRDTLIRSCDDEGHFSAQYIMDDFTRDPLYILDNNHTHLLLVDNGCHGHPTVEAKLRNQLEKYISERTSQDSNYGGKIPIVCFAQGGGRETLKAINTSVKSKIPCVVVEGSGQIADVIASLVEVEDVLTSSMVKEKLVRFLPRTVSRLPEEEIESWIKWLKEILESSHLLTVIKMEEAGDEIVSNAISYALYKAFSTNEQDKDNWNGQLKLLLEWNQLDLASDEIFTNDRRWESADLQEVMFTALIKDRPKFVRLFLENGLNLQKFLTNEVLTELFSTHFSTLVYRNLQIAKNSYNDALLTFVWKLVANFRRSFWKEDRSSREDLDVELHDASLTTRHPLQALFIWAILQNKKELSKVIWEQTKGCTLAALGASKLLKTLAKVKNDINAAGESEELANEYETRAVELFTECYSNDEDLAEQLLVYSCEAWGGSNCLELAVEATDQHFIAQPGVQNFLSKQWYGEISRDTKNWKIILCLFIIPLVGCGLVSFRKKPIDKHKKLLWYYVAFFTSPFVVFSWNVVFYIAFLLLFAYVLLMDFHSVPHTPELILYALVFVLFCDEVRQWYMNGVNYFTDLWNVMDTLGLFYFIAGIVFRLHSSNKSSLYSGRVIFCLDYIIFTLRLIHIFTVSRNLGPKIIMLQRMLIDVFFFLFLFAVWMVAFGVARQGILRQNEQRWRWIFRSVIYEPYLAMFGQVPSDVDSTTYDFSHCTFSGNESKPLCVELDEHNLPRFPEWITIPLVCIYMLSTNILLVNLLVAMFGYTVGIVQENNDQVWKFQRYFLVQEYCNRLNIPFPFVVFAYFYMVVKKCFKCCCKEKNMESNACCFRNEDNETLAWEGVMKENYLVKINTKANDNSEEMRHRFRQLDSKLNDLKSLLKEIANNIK
From the text: (§3) FIG. 3. Median Effective Dose (EC50) of various cooling agents in TRPM8 in vitro assay.
(§4) A receptor assay is a standard tool and can be done quickly. For example, in a 384-plate assay, you can easily test 10 compounds and get dose-response data. For a chemical agonist, an in vitro TRPM8 assay generates an EC50 (median effective concentration). But the quantitative correlation between the EC50 on TRPM8 and cooling sensation is not always clear. That is, the language of receptor identification and potency was “roughly” predictive, but there was considerable uncertainty for each agonist. […] Table 5 summarizes results on TRPM8 EC50 (see FIG. 3). The specific references for each value are: […] The full citations are listed in the References. Leffingwell. Ref. 4 gives the FEMA numbers for each compound.
(§5) FIG. 3. Median Effective Dose (EC50) of various cooling agents in TRPM8 in vitro assay. […] The Ref. No. in Table 5 are to: 1=McKemy et al., 2002; 2=Behrendt et al., 2004; 3=Bodding et al., 2007; 4=Sherkheli et al., 2010; and 5=Johnson et al., 2018.
(§6) TRPM8 EC50 Receptor Assay. […] A receptor assay is a standard tool and can be done quickly. […] But the quantitative correlation between the EC50 on TRPM8 and cooling sensation was vague. […]

[12] = molecular target: T3, TRPM8; settings: Ref. 2 (Behrendt et al., 2004); cited from earlier work
[13] = molecular target: T1, TRPM8; assay: TRPM8 in vitro assay, EC50 of cooling agents (published data, Table 5 / FIG. 3); format: cell-based; parameters: EC50; other: Johnson, 2.2/2.2; settings: Johnson, 2.2/2.2
From the text: as §3, §4, §5, §6

[14] = molecular target: T4, TRPM8 (Rattus norvegicus, UniProt Q8R455); assay: as above; format: cell-based; parameters: EC50; other: Sherkheli, 196/1500; settings: Sherkheli, 196/1500
From the text: as §3, §4, §5, §6

[15] = molecular target: T4, TRPM8; parameters: EC50; other: Sherkheli, 196/1500; settings: Ref. 4 (Sherkheli et al., 2010); cited from earlier work
[16] = 8% wt/vol gel with ethanol, 1,2-propanediol, carbomer and dispersing agent or 0.2% DIPA-1-7 initiator
[17] = topical liquid or gel, Table 11

T1 sequence (Q7Z2W7 whole entry, species assumed): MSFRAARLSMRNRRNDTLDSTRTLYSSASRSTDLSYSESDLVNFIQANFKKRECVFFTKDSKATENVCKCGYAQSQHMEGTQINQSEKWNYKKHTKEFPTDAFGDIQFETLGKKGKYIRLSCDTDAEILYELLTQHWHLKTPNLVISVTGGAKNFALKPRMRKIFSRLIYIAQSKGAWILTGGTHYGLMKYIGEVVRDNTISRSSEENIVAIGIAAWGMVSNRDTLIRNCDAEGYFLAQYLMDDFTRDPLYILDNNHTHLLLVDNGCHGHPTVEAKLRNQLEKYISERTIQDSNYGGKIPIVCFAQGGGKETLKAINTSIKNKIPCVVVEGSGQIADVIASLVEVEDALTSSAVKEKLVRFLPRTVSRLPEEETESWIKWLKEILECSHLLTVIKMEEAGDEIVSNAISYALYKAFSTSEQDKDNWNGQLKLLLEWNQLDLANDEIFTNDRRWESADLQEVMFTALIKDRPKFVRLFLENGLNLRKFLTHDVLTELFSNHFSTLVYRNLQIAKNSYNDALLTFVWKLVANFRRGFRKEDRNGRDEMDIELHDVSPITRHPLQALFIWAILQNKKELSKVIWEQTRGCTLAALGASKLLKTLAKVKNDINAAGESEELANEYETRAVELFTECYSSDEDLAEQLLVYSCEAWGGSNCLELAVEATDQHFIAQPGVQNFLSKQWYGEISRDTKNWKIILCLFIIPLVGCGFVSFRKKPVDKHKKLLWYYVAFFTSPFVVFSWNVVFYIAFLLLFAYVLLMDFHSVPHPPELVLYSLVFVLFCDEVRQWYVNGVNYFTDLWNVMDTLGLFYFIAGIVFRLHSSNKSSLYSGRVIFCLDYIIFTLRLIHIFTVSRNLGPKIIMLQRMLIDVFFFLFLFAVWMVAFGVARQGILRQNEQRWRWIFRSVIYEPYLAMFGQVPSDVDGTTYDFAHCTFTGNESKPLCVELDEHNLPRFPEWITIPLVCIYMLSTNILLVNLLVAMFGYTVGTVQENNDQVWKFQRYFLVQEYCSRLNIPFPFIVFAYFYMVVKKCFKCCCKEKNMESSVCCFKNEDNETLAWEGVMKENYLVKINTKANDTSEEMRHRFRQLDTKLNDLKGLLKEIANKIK

With CCNC(=O)C(CC)(C(C)C)C(C)C [FEMA 4557, N-ethyl-2,2-diisopropylbutanamide] the “EC50 potency relative to l-menthol” value ([1]; FIG. 4) was “about 1/30”, the EC50 ([1]; FIG. 4, estimated) was 410 µM and the “activity on TRPM8 as % of the activity of l-menthol” value ([1]; further experiments by the applicant) was 10%. The “potency relative to menthol” value ([1]; tests by Prof Lee (FIG. 4)) was less than 0.1, the “activity on TRPA1” value [2] was “absence of activity; also recorded: not active” and the “Effects of 15 mg on tongue: duration” value [3] was greater than 35 min. The “Effects of 15 mg on tongue: sensation” value [3] was “stinging, freezing, and painful cold on the throat; also recorded: stinging, painful freezing cold in throat”, the “Effects of 15 mg on tongue: sensation” value ([3]; listed as 4557) was “stinging, painful cold” and the “average time of cooling” value ([4]; 8% concentration) was no less than 175 min. For the same molecule, the Duration of cooling ([4]; 8% wt./vol. gel, FIG. 6) was roughly 3 h, the “Comments: quality of sensation on philtrum skin” value ([4]; 8% wt/vol) was “icy cold sensations, prolonged cooling,” and the “duration of effect of topical gel” value [4, 16] was no less than 3 h. For the same molecule, the “onset of topical gel” value [4, 16] was “less than 3 min”, the Duration of cooling ([4]; 8% wt/vol on philtrum) was 180+ min and the total therapeutic duration ([4]; 16 to 32%) was “at least 6 hr”. For the same molecule, the “after effect: further cooling on the skin” value ([4]; 16 to 32%, revealed by warm towel) was 3 h, the “cooling duration compared to menthol” value ([4]; >180/25) was greater than 7 fold and the Duration-Skin ([4]; Wei, Table 6, see FIG. 6) was 3+ Hours. For the same molecule, the Duration of cooling ([4]; concentrations ≥5%, FIG. 7) was no less than 1 h, the “skin tissue irritation or inflammation” value ([4]; concentrations ≥5%, up to 50% wt/vol) was “not observed or detected” and the “average time of cooling” value ([4]; first concentration of '2.4 and 8%' (2%)) was 50 min. The “effective concentration for topical activity on the skin” value ([4]; in vivo) was no less than 5%, the “average time of cooling” value ([4]; second concentration of '2.4 and 8%' (4%)) was 95 min and the Duration of cooling ([4]; single dose of the 16 to 32% solution) was roughly 3 h. The “sensation on the philtrum” value ([4]; solution at ≥64%) was “pleasant and robust cool”, the “adverse sensations of stinging cold” value ([4]; solution at ≥64% on the philtrum) was “No cold stinging sensations were felt” and the “tolerability on the skin” value ([4]; solutions of ≥32%) was “well-tolerated”. For the same molecule, the Onset [4, 17] was roughly 10 min, the scratching and licking ([5]; Study 2, Dachshund, 8% wt/vol gel on belly and groin, within one day) was “scratching and licking were reduced” and the redness and swelling ([5]; Study 2, after three days of daily application of 8% gel) was “the redness and swelling disappeared”. The licking of paws ([5]; Study 3, 20% wt/vol solution in propylene glycol on interdigital folds) was “stopped licking its front paws”, the scratching ([5]; Study 3, West Highland Terrier, 8% gel on groin, hindquarters, perianal area) was “stopped the scratching” and the “signs of skin discomfort” value ([5]; Study 3, after five days of treatment) was “All signs of skin discomfort disappeared”. For the same molecule, the “anti-itch effect of topical formulations” value ([5]; topical gel or solution, insect bites, dermatitis, allergies) was “effectively treated the itch; also recorded: anti-itch effects on flea bites and other skin”, the Side-effects [5, 17] was “None observed” and the “Absence of Irritancy” value [6] was “A”. For the same molecule, the Potency [6] was “C”, the “Rapid Onset” value [6] was “B” and the “Safety in Use” value [6] was “A”. The “Sufficient Duration” value [6] was “A+”, the “activity on TRPA1 as reported in literature” value [7] was “activates TRPA1” and the “Cooling Intensity Oral Cavity Scaled” value [8] was 3.3. For the same molecule, the “effect on scratching and rashes” value [9] was “effective for scratching caused by bites of ectoparasites and rashes caused by yeast infection” and the EC50 [10] was 1.6 µM.

For CNC(=O)C(C)(C(C)C)C(C)C [WS-23], the “potency relative to menthol (TRPM8 EC50 ratio)” value [11] was 0.09, the “Effects of 15 mg on tongue: duration” value [3] was roughly 18 min and the “Effects of 15 mg on tongue: sensation” value [3] was “painful cold in throat”. The Duration of cooling ([4]; 8% wt/vol on philtrum) was 0.417 ± 0.05 h, the EC50 [12] was 44 µM and the “Cooling Intensity Oral Cavity Scaled” value [8] was 2.25. The “potency relative to menthol (TRPM8 EC50 ratio)” value [13] was 1, the “potency relative to menthol (TRPM8 EC50 ratio)” value [14] was 0.13 and the EC50 [10] was 2.2 µM. For the same molecule, the EC50 [15] was 1500 µM.
